According to patent publication US9809560B2, “Ligands and methods for labeling biomolecules in vivo” (Albert Einstein College of Medicine, Inc., priority 2010, dated 2017):
Structures can show the parent of a compound that is named as a salt.

Columns and labels:
[1] = tested on: PD1-Fc; assay: Labeling of PD1-Fc via CuAAC and Cu-free click chemistry, detection by Western blot; details: 1 h; for Western blot labeling signal: CuAAC with biotin-alkyne 100 μM or BARAC-biotin 100 μM
Procedure: FIG. 13. Comparison of the efficiency of the CuAAC and BARAC-mediated copper-free click chemistry in labeling recombinant proteins and crude cell lysates. Western blot analysis of PD1-Fc isolated from HEK cells treated with Ac4ManNAz (top panel). Total protein loading was confirmed by Coomassie staining (bottom panel). Reaction conditions for CuAAC: biotin-alkyne (100 μM) in the presence of sodium ascorbate (2.5 mM), CuSO4 (250 μM) premixed with various tristriazolylamino ligands (500 μM); copper-free click reaction: BARAC-biotin (100 μM). Reactions were allowed to proceed for 1 h at room temperature, and analyzed by Western blot using an HRP-conjugated anti-biotin antibody. Structural formulae of tris(triazolylmethyl)amine-based ligands and BARAC-biotin. BTTAA=2-[4-({bis[(1-tert-butyl-1H-1,2,3-triazol-4-yl)methyl]amino}methyl)-1H-1,2,3-triazol-1-yl]acetic acid, BTTES=2-[4-({bis[(1-tert-butyl-1H-1,2,3-triazol-4-yl)methyl]amino}methyl)-1H-1,2,3-triazol-1-yl]ethyl hydrogen sulfate, TBTA=tris[(1-benzyl-1H-1,2,3-triazol-4-yl)methyl]amine, THPTA=tris[(1-hydroxypropyl-1H-1,2,3-triazol-4-yl)methyl]amine, BARAC=biarylazacyclooctynone.
To evaluate the activity of the new ligand-Cu(I) complex and compare the click reactions in the context of biomolecular labeling experiments, the first system used was a recombinant glycoprotein—Programmed Death 1-Immunoglobulin G Fc fusion (PD1-Fc). When expressed in mammalian cells, the Fc region of the recombinant protein is glycosylated and terminated with sialic acids. HEK-293 cells stably expressing PD1-Fc fusion protein were cultured in medium containing 50 μM sialic acid metabolic precursor—peracetylated N-azidoacetylmannosamine (Ac4ManNAz) for 4 days. The target protein was then isolated using protein G (a genetically engineered protein that contains Fc binding domains of protein G) agarose. To probe for the presence of the sialic acid-associated azide, the protein was reacted with biotin-alkyne via the CuAAC or BARAC-biotin via the copper-free click chemistry. For the CuAAC, 100 μM of biotin-alkyne was used as the coupling partner and the ratio of biotin-alkyne, ligand, CuSO4 and sodium ascorbate was held at 1:5:2.5:25, a labeling condition optimized in the lab. The copper-free click chemistry was performed with 100 μM of BARAC-biotin. The reactions were allowed to proceed for one hour and the labeled protein was analyzed by SDS-PAGE and Western blot. As quantified by ImageJ, reactions mediated by BTTES-Cu(I) and BTTAA-Cu(I) provided 2.6- and 2.1-fold stronger signal than the signal afforded by THPTA-Cu(I) for the fusion protein isolated from Ac4ManNAz-treated culture. […]

[2] = tested on: Jurkat cells; assay: Live cell labeling of Ac4ManNAl-treated cells, BTTPS-Cu(I) vs BTTP-Cu(I), Alexa Fluor 488-streptavidin and 7-AAD flow cytometry; type: cell-based, human; details: for mean fluorescence intensity: 15 min
Procedure: FIG. 12A-12D. Comparison of the efficiency of the BTTPS-Cu(I) and BTTP-Cu(I)-mediated azide-alkyne cycloaddition in labeling sialylated glycoconjugates in live cells. Jurkat cells were cultured in the presence or absence of Ac4ManNAl for 3 days. Cells were then reacted with biotin azide (50 μM) in the presence of sodium ascorbate (2.5 mM), and CuSO4 premixed with ligands BTTPS or BTTP ([ligand]:[CuSO4]=6:1). Reactions were quenched with BCS, stained with Alexa Fluor 488-streptavidin, 7-AAD, and analyzed by flow cytometry. (A) Mean fluorescence intensity (MFI) of cells treated with the BTTPS-Cu(I) or BTTP-Cu(I) catalyst ([CuSO4]=75 μM) in the course of 5-15 min reactions. (B) Percentage of viable cells without cell-membrane damage post the click reactions with the BTTPS-Cu(I) or BTTP-Cu(I) catalyst ([CuSO4]=75 μM) in the course of 5-15 min reactions. (C) MFI of cells treated with the BTTPS-Cu(I) catalyst ([CuSO4]=20-75 μM) in a one-minute reaction. (D) Percentage of viable cells without cell-membrane damage post the click reactions with the BTTPS-Cu(I) catalyst ([Cu]=20-75 μM) in a one-minute reaction.
In the ligand design, sulfation of BTTP is used to generate a negatively charged ligand, BTTPS (3-(4-((bis((1-tert-butyl-1H-1,2,3-triazol-4-yl)methyl)amino)methyl)-1H-1,2,3-triazol-1-yl)propyl hydrogen sulfate), (FIG. 14) to minimize the cellular internalization of the coordinated copper. To evaluate if sulfation confers the ligand the desired property, BTTPS-Cu(I) and BTTP-Cu(I) were compared in live cell labeling experiments. Jurkat cells were metabolically labeled with Ac4ManNAl. The treated cells were reacted with biotin-azide (50 μM) in the presence of BTTPS-Cu(I) or BTTP-Cu(I) for 5-15 min at room temperature (catalyst formulation: [ligand]:[CuSO4]=6:1, [CuSO4]=75 μM). After the reaction was quenched with BCS, the biotinylated cells were incubated with Alexa Fluor 488-streptavidin. The cells were then stained with 7-aminoactinomycin D (7-AAD), a fluorescent molecule with strong affinity for double-stranded DNA, and analyzed by flow cytometry. […] Therefore, healthy and damaged cells can be easily distinguished. […] Greater than 60% cells were still undamaged after treatment with BTTPS-Cu(I) (7-AAD negative), whereas only 26% cells treated with BTTP-Cu(I) reminded normal (FIG. 12b). Furthermore, the labeling temperature also plays a significant role in modulating the Cu-associated toxicity. When both Jurkat cells and the labeling reagents were pre-cooled to 4° C. before triggering the CuAAC, greater than 85% cells remained viable after a 15 min BTTPS-Cu(I)-mediated reaction with high labeling efficiency achieved (mean fluorescence intensity 2200, for reactions performed at 4° C.-room temperature vs 3679, for reactions performed at room temperature).

[3] = cited from earlier work
[4] = Fluorogenic kinetic assay of CuAAC of 3-azido-7-hydroxy-coumarin and propargyl alcohol; details: TBTA-Cu(I)-catalyzed reaction, same fluorogenic assay
Procedure: FIG. 1A-1C. Copper(I)-catalyzed azide-alkyne cycloaddition (CuAAC) is accelerated by Cu(I)-stabilizing ligands. (A) CuAAC of azides and terminal alkynes to form 1,4-disubstituted 1,2,3-triazoles. (B) Structures of CuAAC-accelerating ligands. (C) Conversion-time profiles of CuAAC in the presence/absence of accelerating ligands. Reaction conditions: propargyl alcohol (50 μM), 3-azido-7-hydroxy-coumarin (100 μM), CuSO4 (75 μM), 0.1 M potassium phosphate buffer (pH 7.0)/DMSO 95:5, sodium ascorbate ([…]), rt. Error bars represent the standard deviation of three replicate experiments.
Protocol for Kinetic Measurement of CuAAC of 3-azido-7-hydroxy-coumarin and Propargyl Alcohol […]
Procedure for 200 μL reactions: In a 96-well fluorescence plate, add the reagents in the following order: (1) 40 μL of 500 mM phosphate buffer pH 7.0; (2) 1.0 μL 10 mM propargyl alcohol; (3) 10 μL of DMSO; (4) 6 μL of premixed CuSO4 and ligand ([Cu]=2.5 mM); (5) 1.0 μL 20 mM coumarin-N3; (6) 20 μL of 25 mM sodium ascorbate; (7) Read fluorescence (λex=404 nm, λem=477 nm, RFU) on the Synergy plate reader.

[5] = tested on: zebrafish embryos; details: 1 mM CuSO4, 1.5 mM sodium ascorbate, 0.1 mM TBTA ligand; cited from earlier work

In the case of “tris[(1-hydroxypropyl-1H-1,2,3-triazol-4-yl)methyl]amine [THPTA]”, the “Western blot labeling signal” value [1] is reported as “significantly weaker labeling”.
In the case of `CC(C)(C)n1cc(CN(Cc2cn(CCCOS(=O)(=O)O)nn2)Cc2cn(C(C)(C)C)nn2)nn1` [BTTPS, 3-(4-((bis((1-tert-butyl-1H-1,2,3-triazol-4-yl)methyl)amino)methyl)-1H-1,2,3-triazol-1-yl)propyl hydrogen sulfate], the mean fluorescence intensity ([2]; reactions performed at 4° C.-room temperature) is reported as 2200, the mean fluorescence intensity ([2]; reactions performed at room temperature) is reported as 3679 and the “cells undamaged (7-AAD negative)” value ([2]; 15 min reaction at room temperature, [ligand]:[CuSO4]=6:1, [CuSO4]=75 μM) is reported as “Greater than 60%”. The cells remaining viable ([2]; cells and reagents pre-cooled to 4° C., 15 min reaction) was “greater than 85%”.
In the case of `c1ccc(Cn2cc(CN(Cc3cn(Cc4ccccc4)nn3)Cc3cn(Cc4ccccc4)nn3)nn2)cc1` [TBTA, tris[(1-benzyl-1H-1,2,3-triazol-4-yl)methyl]amine], the water solubility [3] is listed as “very poor water solubility”, the “cycloaddition product yield at leveling off” value [4] is listed as < 20% and the “time by which all embryos were dead” value [5] is listed as ≤ 15 min. The “Western blot labeling signal” value [1] was “no detectable signal”.
With `CC(C)(C)n1cc(CN(Cc2cn(CC(=O)O)nn2)Cc2cn(C(C)(C)C)nn2)nn1` [BTTAA, 2-(4-((bis((1-tert-butyl-1H-1,2,3-triazol-4-yl)methyl)amino)methyl)-1H-1,2,3-triazol-1-yl)acetic acid] the “signal relative to THPTA-Cu(I) (Western blot, ImageJ)” value ([1]; biotin-alkyne 100 μM, ligand 500 μM, CuSO4 250 μM, sodium ascorbate 2.5 mM) was 2.1 fold.
With biarylazacyclooctynone [BARAC] the “Western blot labeling signal” value [1] was “no detectable signal”.
